Measurements from patent US10512635B2, “Uses of benzimidazole derivative for nocturnal acid breakthrough” (CJ HEALTHCARE CORPORATION, priority 2015, dated 2019).
Where “and” joins values, the source holds several entries; their conditions need not be identical. Equal entries are not always repeated.

Tested on: gastric pH
Assay: Clinical trial: 24 h gastric pH monitoring after single night-time oral dose
Format: in vivo, human (healthy male volunteers)
Settings: for % inhibition of IA / % inhibition of Time pH < 4: post-dose vs baseline; for % inhibition of IA / % inhibition of Time pH < 4 / IA (integrated acidity) / Median pH / Time pH > 4 (%) / Time pH > 6 (%): mean N=12; for IA (integrated acidity) / Median pH / Time pH > 4 (%) / Time pH > 6 (%): post-dose
Experimental: In order to evaluate the nocturnal acid breakthrough inhibiting effect of the compound of Chemical Formula 1 according to the present disclosure, clinical trials were designed by Randomized, Open-label, Single-dose, Balanced incomplete block crossover. A total of 24 trial subjects were enrolled for 12 sequences, with two trial subjects assigned per a sequence. All the trial subjects have completed the planned clinical trial schedule (FIG. 1 and Table 1).
Trial drugs were administered between P.M. 08:30 and P.M 10:30 together with 200 mL of water in a state where water intake was restricted 1 hour before the administration of the trial drugs. Investigator has instructed the trial subjects to take the trial drugs, and has observed the oral cavities of the trial subjects whether all the trial drugs were well taken. The trial subjects were restricted not to lie down for 3 hours after the administration of the trial drugs, but were not restricted when they must lie down or be semi-reclined during a clinical test procedure (for example, electrocardiogram examination). The trial subjects were to take a proper posture if any abnormal reaction occurs at any point.
The trial subjects were allowed to take a small amount of water (150 mL or less) in order to insert a pH sensor easily. The intake of drinking water and food was prohibited for 4 hours after the insertion of a pH sensor, and, particularly, the intake of water was restricted for 4 hours after the administration of the trial drugs (On the day before the administration (−1 D), for 4 hours after estimated drug administration time). After the trial subjects woke up next day, a small amount of water (about 50 mL) was provided to the trial subjects at 2 hour intervals during 12 to 24 hours after the administration of the trial drugs (On the day before the administration (−1 D), during 12 to 24 hours after estimated drug administration time), and the intake of water was not restricted during meal time. Meanwhile, standard meal was provided in the form of liquid meal or semi-liquid, and dinner was finished at least 3 hours before drug administration time (On the day before the administration (−1 D), estimated drug administration time). After dinner, an empty stomach state was maintained until breakfast next morning.
Specifically, for the analysis of […] parameters, the changes of average 15-min median gastric pH over time were monitored. The main […] parameters set forth above were calculated using the data of total 24 persons obtained by the monitoring of gastric pH. The time function of […] parameters was schematically was illustrated to calculate the […] parameters, and these […] parameters were summarized using descriptive statistics (arithmetic mean (mean), standard deviation (SD), coefficient of variation (CV (%)), sample size (N), minimum value (min), maximum value (max), and median value (median)).
Meanwhile, the monitoring of gastric pH was carried out as fellows. • Period 1: for each examination period, 24 h for −1 D (before administration), 24 h for each of 1 D and 7 D (after administration) • Period 2: 24 h for 1 D (after administration)

[1] = Compound I 50 mg (Example 1), 24 hours
[2] = Compound I 50 mg (Example 1), day-time (12-24 hours)
[3] = Compound I 50 mg (Example 1), night-time (0-12 hours)
[4] = Compound I 100 mg (Example 2), 24 hours
[5] = Compound I 100 mg (Example 2), day-time (12-24 hours)
[6] = Compound I 100 mg (Example 2), night-time (0-12 hours)
[7] = Compound I 200 mg (two formulations of Example 2), 24 hours
[8] = Compound I 200 mg (two formulations of Example 2), day-time (12-24 hours)
[9] = Compound I 200 mg (two formulations of Example 2), night-time (0-12 hours)
[10] = dexlansoprazole 60 mg (Comparative Example), 24 hours
[11] = dexlansoprazole 60 mg (Comparative Example), day-time (12-24 hours)
[12] = dexlansoprazole 60 mg (Comparative Example), night-time (0-12 hours)

Compound: Cc1nc2c(OC3CCOc4cc(F)cc(F)c43)cc(C(=O)N(C)C)cc2[nH]1 (centres unmarked) [Compound I, 4-(5,7-difluorochroman-4-yloxy)-N,N,2-trimethyl-1H-benzo[d]imidazole-6-carboxamide]
- % inhibition of IA [1]: 78.18%
- % inhibition of Time pH < 4 [1]: 51.35%
- % inhibition of IA [2]: 62.64%
- % inhibition of Time pH < 4 [2]: 39.65%
- % inhibition of IA [3]: 83.98%
- % inhibition of Time pH < 4 [3]: 61.41%
- IA (integrated acidity) [1]: 355.02 mmol·h/L
- Median pH [1]: 4.57
- Time pH > 4 (%) [1]: 58.55%
- Time pH > 6 (%) [1]: 25.97%
- IA (integrated acidity) [2]: 184.29 mmol·h/L
- Median pH [2]: 4.08
- Time pH > 4 (%) [2]: 52.06%
- Time pH > 6 (%) [2]: 21.56%
- IA (integrated acidity) [3]: 170.73 mmol·h/L
- Median pH [3]: 4.98
- Time pH > 4 (%) [3]: 65.11%
- Time pH > 6 (%) [3]: 30.41%
- % inhibition of IA [4]: 88.78%
- % inhibition of Time pH < 4 [4]: 66.22%
- % inhibition of IA [5]: 90.74%
- % inhibition of Time pH < 4 [5]: 71.47%
- % inhibition of IA [6]: 88.68%
- % inhibition of Time pH < 4 [6]: 62.53%
- IA (integrated acidity) [4]: 229.60 mmol·h/L
- Median pH [4]: 5.10
- Time pH > 4 (%) [4]: 70.07%
- Time pH > 6 (%) [4]: 31.91%
- IA (integrated acidity) [5]: 67.72 mmol·h/L
- Median pH [5]: 5.10
- Time pH > 4 (%) [5]: 74.57%
- Time pH > 6 (%) [5]: 30.10%
- IA (integrated acidity) [6]: 161.88 mmol·h/L
- Median pH [6]: 5.01
- Time pH > 4 (%) [6]: 65.61%
- Time pH > 6 (%) [6]: 33.85%
- % inhibition of IA [7]: 93.45%
- % inhibition of Time pH < 4 [7]: 78.87%
- % inhibition of IA [8]: 97.41%
- % inhibition of Time pH < 4 [8]: 82.48%
- % inhibition of IA [9]: 91.17%
- % inhibition of Time pH < 4 [9]: 76.00%
- IA (integrated acidity) [7]: 141.62 mmol·h/L
- Median pH [7]: 5.90
- Time pH > 4 (%) [7]: 81.73%
- Time pH > 6 (%) [7]: 48.44%
- IA (integrated acidity) [8]: 25.51 mmol·h/L
- Median pH [8]: 5.62
- Time pH > 4 (%) [8]: 85.34%
- Time pH > 6 (%) [8]: 43.29%
- IA (integrated acidity) [9]: 116.11 mmol·h/L
- Median pH [9]: 6.00
- Time pH > 4 (%) [9]: 78.15%
- Time pH > 6 (%) [9]: 53.63%
- Time pH > 4 (%) (Compound I 200 mg (two formulations of Example 2), night-time (0-12 hours), listed as compound of Chemical Formula 1): 73.15%
- time after administration until average gastric pH reached 4 or higher (all dose groups (50 mg, 100 mg, and 200 mg), administered at night-time): ≤ 2 hours

Compound: Cc1c(OCC(F)(F)F)ccnc1C[S@@+]([O-])c1nc2ccccc2[nH]1 [dexlansoprazole, reference compound]
- % inhibition of IA [10]: 64.66%
- % inhibition of Time pH < 4 [10]: 53.96%
- % inhibition of IA [11]: 97.01%
- % inhibition of Time pH < 4 [11]: 79.80%
- % inhibition of IA [12]: 44.06%
- % inhibition of Time pH < 4 [12]: 29.98%
- IA (integrated acidity) [10]: 719.54 mmol·h/L
- Median pH [10]: 4.98
- Time pH > 4 (%) [10]: 60.55%
- Time pH > 6 (%) [10]: 25.85%
- IA (integrated acidity) [11]: 22.89 mmol·h/L
- Median pH [11]: 5.56
- Time pH > 4 (%) [11]: 83.05% and 83.06%
- Time pH > 6 (%) [11]: 33.71%
- IA (integrated acidity) [12]: 696.55 mmol·h/L
- Median pH [12]: 2.55
- Time pH > 4 (%) [12]: 37.78%
- Time pH > 6 (%) [12]: 17.76%
